Assays:
[1] = for viscosity / mass density: 101.33 kPa, Liquid; for viscosity: Cone and plate viscometry; for mass density: Vibrating tube method; for surface tension liquid-gas: Pendant drop shape
[2] = refractive index (Na D-line) (dimensionless); conditions: 101.33 kPa, Liquid, Standard Abbe refractometry

CCCC[N+](C)(C)C.O=S(=O)([N-]S(=O)(=O)C(F)(F)F)C(F)(F)F [butyltrimethylammonium bis(trifluoromethylsulfonyl)imide]
Conditions	mass density, [1] [kg/m3]	refractive index, [2]	surface tension liquid-gas, [1] [mN/m]	viscosity, [1] [mPa·s]
283.15 K	1407.8	1.4122	–	254.2
288.15 K	1403.2	1.41083	–	184.6
293.15 K	1398.7	1.40945	–	137.7
293.2 K	–	–	33.4	–
298.15 K	1394.2	1.40818	–	105.2
298.2 K	–	–	33.2	–
303.15 K	1389.8	1.40676	–	82
303.2 K	–	–	33	–
308.15 K	1385.4	1.40538	–	65.2
313.1 K	–	–	32.5	–
313.15 K	1381	1.40405	–	52.7
318.15 K	1376.6	1.40273	–	43.2
323.1 K	–	–	32	–
323.15 K	1372.3	1.40142	–	35.9
328.15 K	1368	1.40006	–	30.2
333.1 K	–	–	31.5	–
333.15 K	1363.7	1.39877	–	25.7
338.15 K	1359.5	1.39747	–	22
343.15 K	1355.2	1.39616	–	19.1
348.15 K	1351	1.39486	–	16.7
353.15 K	1346.8	1.39358	–	14.7

CC[S+](C)CC.O=S(=O)([N-]S(=O)(=O)C(F)(F)F)C(F)(F)F [diethylmethylsulfonium bis[(trifluoromethyl)sulfonyl]imide]
Conditions	mass density, [1] [kg/m3]	refractive index, [2]	surface tension liquid-gas, [1] [mN/m]	viscosity, [1] [mPa·s]
283.15 K	1517.3	1.42745	–	78.3
288.15 K	1512.2	1.42597	–	62.1
293.15 K	1507.2	1.42452	–	49.9
293.2 K	–	–	35.7	–
298.15 K	1502.3	1.42325	–	41.1
298.2 K	–	–	35.5	–
303.15 K	1497.3	1.42168	–	34.1
303.2 K	–	–	35.3	–
308.15 K	1492.4	1.42026	–	28.7
313.1 K	–	–	34.8	–
313.15 K	1487.6	1.41886	–	24.4
318.15 K	1482.8	1.41744	–	21
323.1 K	–	–	34.4	–
323.15 K	1478	1.41606	–	18.2
328.15 K	1473.2	1.41468	–	15.9
333.1 K	–	–	33.9	–
333.15 K	1468.5	1.41331	–	14
338.15 K	1463.8	1.41195	–	12.5
343.1 K	–	–	33.4	–
343.15 K	1459.1	1.41058	–	11.1
348.15 K	1454.5	1.40925	–	10
353.15 K	1449.8	1.40793	–	9

CCCC[N+](C)(CCCC)CCCC.O=S(=O)([N-]S(=O)(=O)C(F)(F)F)C(F)(F)F [tributylmethylammonium bis((trifluoromethyl)sulfonyl)imide]
Conditions	mass density, [1] [kg/m3]	refractive index, [2]	surface tension liquid-gas, [1] [mN/m]	viscosity, [1] [mPa·s]
283.15 K	1276	1.4308	–	2049.8
288.15 K	1271.7	1.42933	–	1264
293.15 K	1267.3	1.42787	–	819.2
293.3 K	–	–	30.8	–
298.15 K	1262.8	1.42643	–	538.9
298.2 K	–	–	30.6	–
303.15 K	1258.4	1.42491	–	369.3
303.2 K	–	–	30.2	–
308.15 K	1254.1	1.42338	–	260.4
313.15 K	1249.9	1.42194	–	189.5
313.2 K	–	–	29.7	–
318.15 K	1245.8	1.42047	–	139.6
323.15 K	1241.7	1.41902	–	105.6
323.2 K	–	–	29.1	–
328.15 K	1237.6	1.41758	–	81.5
333.15 K	1233.6	1.41613	–	64.1
338.15 K	1229.5	1.41468	–	51.1
343.15 K	1225.5	1.41324	–	41.4
348.15 K	1221.5	1.4118	–	34
353.15 K	1217.5	1.4104	–	28.3

CC[S+](CC)CC.O=S(=O)([N-]S(=O)(=O)C(F)(F)F)C(F)(F)F [triethylsulfonium bis((trifluoromethyl)sulfonyl)imide]
Conditions	mass density, [1] [kg/m3]	refractive index, [2]	surface tension liquid-gas, [1] [mN/m]	viscosity, [1] [mPa·s]
283.15 K	1477	1.43056	–	64.4
288.15 K	1472	1.42906	–	51.1
293.15 K	1467.1	1.42765	–	41.1
293.3 K	–	–	35.5	–
298.15 K	1462.1	1.42632	–	33.9
298.2 K	–	–	35.2	–
303.15 K	1457.3	1.42472	–	28.2
303.2 K	–	–	35	–
308.15 K	1452.4	1.42325	–	23.8
313.1 K	–	–	34.4	–
313.15 K	1447.6	1.42185	–	20.3
318.15 K	1442.8	1.42044	–	17.5
323 K	–	–	34	–
323.15 K	1438.1	1.41906	–	15.2
328.15 K	1433.4	1.41767	–	13.4
333.1 K	–	–	33.4	–
333.15 K	1428.7	1.41629	–	11.8
338.15 K	1424	1.4149	–	10.5
343.1 K	–	–	32.9	–
343.15 K	1419.4	1.41353	–	9.4
348.15 K	1414.8	1.41215	–	8.5
353.15 K	1410.2	1.41077	–	7.7
